Results taken from PubChem BioAssay AID743471 (Broad Institute, 2014).

Test system: HepG2 viability, ATP luminescence (CellTiter-Glo), 72 h
Experiment: HepG2 cell cytotoxicity, dose response, cytotoxicity control, luminescence, dry powder, set 12 (AID 743471)

In order of falling AC35:
1. CCC(C)C(=O)OC1CC(C)C=C2C=CC(C)C(CCC(O)CC(O)CC(=O)O)C21 (stereo not given)  88 µM
2. N#Cc1ccc(-c2ccc3c(c2)[C@H]2[C@H](CCN2S(=O)(=O)c2cccc(F)c2)[C@@H](CO)N3)cc1  24.5 µM
3. CC(C)N1c2ccccc2C(c2ccc(F)cc2)C1/C=C/C(O)CC(O)CC(=O)O (stereo not given)  22.3 µM
4. COc1ccc(-c2ccc3c(c2)[C@H]2[C@H](CCN2S(=O)(=O)c2ccc(OC)cc2)[C@@H](CO)N3C)cc1  21.4 µM
5. COc1ccc(-c2ccc3c(c2)[C@H]2[C@H](CCN2S(=O)(=O)c2ccc(OC)cc2)[C@@H](CO)N3)cc1  21.2 µM
6. COc1ccc(C2=Nn3c(nnc3-c3ccccc3F)SC2)cc1OC  20.8 µM
7. COc1ccc(C2=Nn3c(nnc3-c3ccccc3)SC2)cc1OC  20.2 µM
8. CCOC(=O)CCNc1cc(N2CCc3ccccc3CC2)nc(-c2ccccn2)n1  16.5 µM
9. N#CC1=C(N)Oc2ccc3ccccc3c2C1c1cccc(F)c1 (stereo not given)  16.4 µM
10. COc1ccc(C2=Nn3c(nnc3-c3ccccc3Cl)SC2)cc1OC  15.5 µM
11. N#CC1=C(N)Oc2cc(N)ccc2C1c1ccccc1 (stereo not given)  15 µM
12. COc1ccc(S(=O)(=O)N2CC[C@@H]3[C@@H](CO)Nc4ccc(-c5cccc(C#N)c5)cc4[C@@H]32)cc1  14.9 µM
13. N#CC1=C(N)Oc2cc(O)ccc2C1c1cccc(Br)c1 (stereo not given)  13.7 µM
14. Cc1nc(Nc2ncc(C(=O)Nc3c(C)cccc3Cl)s2)cc(N2CCN(CCO)CC2)n1  12.5 µM
15. Nc1ncnc2c1c(-c1cccc(OCc3ccccc3)c1)cn2C1CC(CN2CCCC2)C1 (stereo not given)  9.61 µM
16. Cc1cc(Nc2cc(N3CCN(C)CC3)nc(Sc3ccc(NC(=O)C4CC4)cc3)n2)n[nH]1  8.49 µM
17. COc1ccc(C(=O)CC2(O)C(=O)Nc3c(Cl)ccc(Cl)c32)cc1 (stereo not given)  8.13 µM
18. CC1(C)CC(c2nc(-c3ccc4ccc(-c5ccccc5)nc4c3)c3c(N)nccn23)C1  7.54 µM
19. Clc1ccc(-c2cnc3ccc(-c4ccccc4)cn23)cc1  3.58 µM
20. COc1ccc(-c2cc(NC=O)c3ncc(-c4ccc(OC)c(OC)c4)n3c2)cc1  3.25 µM
21. Nc1ccn([C@@H]2O[C@H](CO)[C@H](O)C2O)c(=O)n1 (stereo not given in full)  3.04 µM
22. CC[C@@]1(O)C(=O)OCc2c1cc1n(c2=O)Cc2cc3c(CN(C)C)c(O)ccc3nc2-1  2.2 µM
23. COc1ccc(C2=Nn3c(nnc3-c3ccccc3OC)SC2)cc1OC  0.53 µM
24. CC(C)(O)CCc1ccc(O)c2c(=O)c3c(O)c4c(cc3oc12)O[C@H]1OC=C[C@@]41O  0.065 µM
25. COc1cccc2c1C(=O)c1c(O)c3c(c(O)c1C2=O)C[C@@](O)(C(=O)CO)C[C@@H]3O[C@H]1C[C@H](N)[C@H](O)[C@H](C)O1  0.0577 µM
